What is called IC50 is the concentration that gives 50% inhibition.

The record followed here is patent US20240124442A1, “TRICYCLIC-AMIDO-BICYCLIC PRMT5 INHIBITORS” (AMGEN INC., priority 2021, published 2024).

One assay has as its system HCT116 MTAP null cells. As to the kind of experiment: HCT116 MTAP null cell line proliferation / cell viability (CellTiter-Glo, 6 days). In kind it is cell-based. As to conditions: for IC50: HCT116 MTAP null cells, 6 days treatment, CellTiter-Glo cell viability, read-out: HCT-116 MTAP null IC50; for relative potency of the enantiomers (measured by IC50 in HCT116 MTAP null cell viability assay): comparison of the two enantiomers separated by SFC, used to assign (S)/(R). The method, then:
(§1) HCT116 Proliferation Activity
(§2) To assess selective anti-proliferative activity of compounds of the invention in cells that have loss expression of MTAP, an HCT-116 isogenic cell line pair was utilized where one cell line was engineered to genetically knockout both MTAP alleles. Cell viability was then assessed in both the parent HCT-116 cell line and the MTAP null cell line after 6 days of treatment with compounds of the present invention. Selective anti-proliferative activity in the MTAP null cell line indicates MTA-cooperative inhibition of PRMT5 and ability to inhibit growth of cancer cells that have loss of MTAP.
(§3) HCT116 MTAP null and WT cells were seeded in 96-well tissue culture plates in RPMI 1640 media+10% fetal bovine serum. Plates were incubated overnight at 37° C. and 5% CO2. Cells were then treated with an 8- or 9-point serial dilution of compound, using a top concentration of 1, or 10 μM, 1:3 serial dilution steps and, a DMSO-only control. Cells were incubated in the presence of drug for 6 days. Effects on cell viability were measured with the CellTiter-Glo® Luminescent Cell Viability Assay (Promega) per manufacturer's recommendation. Assay plates were read on an EnVision™ Multilabel Reader using the Ultra-Sensitive luminescence module. IC50 values were calculated with GraphPad Prism v 5.01 using symmetrical sigmoidal dose-response least squares fit with Hill slope fixed to −1 and top constrain to 100% or GeneData Screener using a 4-parameter logistic model to fit dose response curves.
(§4) Alternatively, compounds could be assayed with a 384 well plate format:
(§5) Compounds were pre-spotted into 384 well plates with a 22-point serial dilution of compound, using a top concentration of 10 or 50 μM, 1:2 serial dilution steps and, a DMSO-only control. HCT116 MTAP null and WT cells were then seeded as above and after 6 days effects on cell viability were measured with the CellTiter-Glo® Luminescent Cell Viability Assay (Promega). Assay plates were read as above and IC50 values were calculated with GeneData Screener using a 4-parameter logistic model to fit dose response curves. The reported IC50 represents the value where the curve transits 50% of control.
On the technique in general: ATP-based viability assays read luminescence as a measure of living cells.

A further assay has as its system HCT116 WT cells. Kind of assay: HCT116 WT (parent) cell line proliferation / cell viability (CellTiter-Glo, 6 days). The assay is classed as cell-based. Particulars: 6 days treatment. The method, then: as §1, §2, §3, §4, §5

Like-named read-outs stand apart in the source and are kept apart here.

`CN(C(=O)c1cc2c3c(c(N)nc2cn1)COC3)C1COc2cc(Br)cnc21` (racemic) [Example 458, 4-amino-N-((3R)-6-bromo-2,3-dihydrofuro[3,2-b]pyridin-3-yl)-N-methyl-1,3-dihydrofuro[3,4-c][1,7]naphthyridine-8-carboxamide and 4-amino-N-((3S)-6-bromo-2,3-dihydrofuro[3,2-b]pyridin-3-yl)-N-methyl-1,3-dihydrofuro[3,4-c][1,7]naphthyridine-8-carboxamide]: the IC50 in the assay with HCT116 MTAP null cells (144 h) turned out to be 5050 nM; with HCT116 WT cells (Homo sapiens, HCT-116, 144 h), 38500 nM.

With `CN(C(=O)c1cc2c3c(c(N)nc2cc1F)COC3)C1COc2cc(OC(F)F)ccc21` (racemic) [Example 459, 4-amino-N-((3R)-6-(difluoromethoxy)-2,3-dihydro-1-benzofuran-3-yl)-7-fluoro-N-methyl-1,3-dihydrofuro[3,4-c]quinoline-8-carboxamide and 4-amino-N-((3S)-6-(difluoromethoxy)-2,3-dihydro-1-benzofuran-3-yl)-7-fluoro-N-methyl-1,3-dihydrofuro[3,4-c]quinoline-8-carboxamide], the IC50 in the assay on HCT116 MTAP null cells (144 h) was found to be 91 nM; in the assay on HCT116 WT cells (Homo sapiens, HCT-116, 144 h) it was 5540 nM.

`CN(C(=O)c1cc2c3c(c(N)nc2cc1F)COC3)C1COc2cc(C(F)(F)F)ncc21` (racemic) [Example 460, 4-amino-7-fluoro-N-methyl-N-((3R)-6-(trifluoromethyl)-2,3-dihydrofuro[3,2-c]pyridin-3-yl)-1,3-dihydrofuro[3,4-c]quinoline-8-carboxamide and 4-amino-7-fluoro-N-methyl-N-((3S)-6-(trifluoromethyl)-2,3-dihydrofuro[3,2-c]pyridin-3-yl)-1,3-dihydrofuro[3,4-c]quinoline-8-carboxamide]: the IC50 came to 162 nM with HCT116 MTAP null cells (144 h) and 10800 nM in the assay with HCT116 WT cells (Homo sapiens, HCT-116, 144 h).

As for `CC(C)S(=O)(=O)c1ccc2c(c1)OCC2N(C)C(=O)c1cc2c3c(c(N)nc2cc1F)COC3` (racemic) [Example 464, 4-amino-7-fluoro-N-methyl-N-((3R)-6-(2-propanylsulfonyl)-2,3-dihydro-1-benzofuran-3-yl)-1,3-dihydrofuro[3,4-c]quinoline-8-carboxamide and 4-amino-7-fluoro-N-methyl-N-((3S)-6-(2-propanylsulfonyl)-2,3-dihydro-1-benzofuran-3-yl)-1,3-dihydrofuro[3,4-c]quinoline-8-carboxamide], the IC50 in the assay with HCT116 MTAP null cells (144 h) was 22 nM; with HCT116 WT cells (Homo sapiens, HCT-116, 144 h) it was 1880 nM.

Turning to `CN(C(=O)c1cc2c3c(c(N)nc2cc1F)COC3)C1COc2cc(Br)cnc21` (racemic) [Example 465, 4-amino-N-((3R)-6-bromo-2,3-dihydrofuro[3,2-b]pyridin-3-yl)-7-fluoro-N-methyl-1,3-dihydrofuro[3,4-c]quinoline-8-carboxamide and 4-amino-N-((3S)-6-bromo-2,3-dihydrofuro[3,2-b]pyridin-3-yl)-7-fluoro-N-methyl-1,3-dihydrofuro[3,4-c]quinoline-8-carboxamide], the IC50 in the assay with HCT116 MTAP null cells (144 h) worked out at 1420 nM; with HCT116 WT cells (Homo sapiens, HCT-116, 144 h) it was 32200 nM.

As for `CN(C(=O)c1cc2c3c(c(N)nc2cc1Cl)COC3)C1COc2cc(C(F)(F)F)cc(F)c21` (racemic) [Example 472, 4-amino-7-chloro-N-((3R)-4-fluoro-6-(trifluoromethyl)-2,3-dihydro-1-benzofuran-3-yl)-N-methyl-1,3-dihydrofuro[3,4-c]quinoline-8-carboxamide and 4-amino-7-chloro-N-((3S)-4-fluoro-6-(trifluoromethyl)-2,3-dihydro-1-benzofuran-3-yl)-N-methyl-1,3-dihydrofuro[3,4-c]quinoline-8-carboxamide], the IC50 with HCT116 MTAP null cells (144 h) worked out at 22 nM; with HCT116 WT cells (Homo sapiens, HCT-116, 144 h), 1140 nM.

Consider `CN(C(=O)c1cc2c(cc1F)nc(N)c1cnn(C)c12)C1CSc2cc(Br)ccc21` (racemic) [Example 479, 4-amino-N-((3R)-6-bromo-2,3-dihydro-1-benzothiophen-3-yl)-7-fluoro-N,1-dimethyl-1H-pyrazolo[4,3-c]quinoline-8-carboxamide and 4-amino-N-((3S)-6-bromo-2,3-dihydro-1-benzothiophen-3-yl)-7-fluoro-N,1-dimethyl-1H-pyrazolo[4,3-c]quinoline-8-carboxamide], for which the IC50 came out at 23 nM in the assay with HCT116 MTAP null cells (144 h) and 710 nM with HCT116 WT cells (Homo sapiens, HCT-116, 144 h).

As to `CN(C(=O)c1cc2c(cc1F)nc(N)c1c2cnn1C)C1COc2cc(C#N)ccc21` (racemic) [Example 482, 4-amino-N-((3R)-6-cyano-2,3-dihydro-1-benzofuran-3-yl)-7-fluoro-N,3-dimethyl-3H-pyrazolo[3,4-c]quinoline-8-carboxamide and 4-amino-N-((3S)-6-cyano-2,3-dihydro-1-benzofuran-3-yl)-7-fluoro-N,3-dimethyl-3H-pyrazolo[3,4-c]quinoline-8-carboxamide], the concentration for half-maximal inhibition (IC50) was found to be 166 nM with HCT116 MTAP null cells (144 h) and 17500 nM with HCT116 WT cells (Homo sapiens, HCT-116, 144 h).

As for `CN(C(=O)c1cc2c(cc1F)nc(N)c1c2cnn1C)C1CSc2cc(Br)ccc21` (racemic) [Example 484, 4-amino-N-((3R)-6-bromo-2,3-dihydro-1-benzothiophen-3-yl)-7-fluoro-N,3-dimethyl-3H-pyrazolo[3,4-c]quinoline-8-carboxamide and 4-amino-N-((3S)-6-bromo-2,3-dihydro-1-benzothiophen-3-yl)-7-fluoro-N,3-dimethyl-3H-pyrazolo[3,4-c]quinoline-8-carboxamide], the IC50 was determined as 221 nM in the assay with HCT116 MTAP null cells (144 h) and 5590 nM in the assay with HCT116 WT cells (Homo sapiens, HCT-116, 144 h).

`CN(C(=O)c1cc2c(cc1Cl)nc(N)c1c2cnn1C)C1CCc2nc(C(F)(F)F)ccc21` (racemic) [Example 485, 4-amino-7-chloro-N,3-dimethyl-N-((5R)-2-(trifluoromethyl)-6,7-dihydro-5H-cyclopenta[b]pyridin-5-yl)-3H-pyrazolo[3,4-c]quinoline-8-carboxamide and 4-amino-7-chloro-N,3-dimethyl-N-((5S)-2-(trifluoromethyl)-6,7-dihydro-5H-cyclopenta[b]pyridin-5-yl)-3H-pyrazolo[3,4-c]quinoline-8-carboxamide]: the IC50 is 125 nM with HCT116 MTAP null cells (144 h) and 11700 nM in the assay on HCT116 WT cells (Homo sapiens, HCT-116, 144 h).

Turning to `CN(C(=O)c1ccc2nc(N)c3c(c2c1)COC3)C1COc2cc(C3=CCN(C(=O)OC(C)(C)C)CC3)ccc21` (racemic) [Example 614, 2-methyl-2-propanyl 4-((3R)-3-(((4-amino-1,3-dihydrofuro[3,4-c]quinolin-8-yl)carbonyl)(methyl)amino)-2,3-dihydro-1-benzofuran-6-yl)-3,6-dihydro-1(2H)-pyridinecarboxylate and 2-methyl-2-propanyl 4-((3S)-3-(((4-amino-1,3-dihydrofuro[3,4-c]quinolin-8-yl)carbonyl)(methyl)amino)-2,3-dihydro-1-benzofuran-6-yl)-3,6-dihydro-1(2H)-pyridinecarboxylate], the concentration for half-maximal inhibition (IC50) with HCT116 MTAP null cells (144 h) was 127 nM; in the assay with HCT116 WT cells (Homo sapiens, HCT-116, 144 h), 1360 nM.

Consider `CN(C(=O)c1ccc2nc(N)c3cnn(C)c3c2c1)C1CCc2ccccc21` (racemic) [Example 681, 4-amino-N-((1R)-2,3-dihydro-1H-inden-1-yl)-N,1-dimethyl-1H-pyrazolo[4,3-c]quinoline-8-carboxamide and 4-amino-N-((1S)-2,3-dihydro-1H-inden-1-yl)-N,1-dimethyl-1H-pyrazolo[4,3-c]quinoline-8-carboxamide], for which the IC50 in the assay on HCT116 MTAP null cells (144 h) came out at 530 nM; with HCT116 WT cells (Homo sapiens, HCT-116, 144 h), 9330 nM.

With `Cc1ccc2c(n1)CCC2N(C)C(=O)c1ccc2nc(N)c3cnn(C)c3c2c1` (racemic) [Example 682, 4-amino-N,1-dimethyl-N-((5R)-2-methyl-6,7-dihydro-5H-cyclopenta[b]pyridin-5-yl)-1H-pyrazolo[4,3-c]quinoline-8-carboxamide and 4-amino-N,1-dimethyl-N-((5S)-2-methyl-6,7-dihydro-5H-cyclopenta[b]pyridin-5-yl)-1H-pyrazolo[4,3-c]quinoline-8-carboxamide], the IC50 with HCT116 MTAP null cells (144 h) was found to be 297 nM; with HCT116 WT cells (Homo sapiens, HCT-116, 144 h), 21000 nM.

As to `CN(C(=O)c1ccc2nc(N)c3c(c2c1)COC3)[C@@H]1COc2cc(C(F)(F)F)ccc21` (single isomer, unassigned) [Example 317], the IC50 came out at 24 nM with HCT116 MTAP null cells (144 h) and 1160 nM in the assay on HCT116 WT cells (Homo sapiens, HCT-116, 144 h). The “relative potency of the enantiomers (measured by IC50 in HCT116 MTAP null cell viability assay)” value in the assay with HCT116 MTAP null cells is recorded as “more potent”.

On to `CN(C(=O)c1ccc2nc(N)c3c(c2c1)COC3)[C@H]1COc2cc(C(F)(F)F)ccc21` (single isomer, unassigned) [Example 318], for which the IC50 is 1360 nM in the assay with HCT116 MTAP null cells (144 h) and 10000 nM in the assay with HCT116 WT cells (Homo sapiens, HCT-116, 144 h). In the assay on HCT116 MTAP null cells, the “relative potency of the enantiomers (measured by IC50 in HCT116 MTAP null cell viability assay)” value was “less potent”.

As to `CN(C(=O)c1ccc2nc(N)c3c(c2c1)COC3)[C@@H]1COc2cc([N+](=O)[O-])ccc21` (single isomer, unassigned) [Example 319], the concentration for half-maximal inhibition (IC50) was found to be 48 nM with HCT116 MTAP null cells and 2210 nM in the assay on HCT116 WT cells (read-out: HCT-116 WT IC50).
